pIC50: −log10 of the molar value.
Test system: 186277-243-T-J2-PDC complex spheroid viability
Assay: Anticancer human tumor 186277-243-T-J2-PDC patient-derived colon adenocarcinoma cell line growth inhibition [POLQ]
Details: for pIC50: curve of first compound; for viability, T/C: stronger effect = lower value
Method in brief: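 PDC + HUVEC + MSC complex spheroids; POLQ inhibitors ± partner drugs; top conc. at/near clinical Cmax, else 10 microM (SN-38 1 microM), half-log dilutions; 37 degrees C, 5% CO2.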

[1] = second compound 0.0316 µM, first compound 0.0316 µM
[2] = second compound 0.0316 µM, first compound 0.1 µM
[3] = second compound 0.1 µM, first compound 0.0316 µM
[4] = second compound 0.1 µM, first compound 0.1 µM
[5] = second compound 0.316 µM, first compound 0.0316 µM
[6] = second compound 0.316 µM, first compound 0.1 µM
[7] = second compound 1 µM, first compound 0.0316 µM
[8] = second compound 1 µM, first compound 0.1 µM
[9] = second compound 3.16 µM, first compound 0.0316 µM
[10] = second compound 3.16 µM, first compound 0.1 µM
[11] = second compound 10 µM, first compound 0.0316 µM
[12] = second compound 10 µM, first compound 0.1 µM
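Further: spheroids exposed to compounds for seven days.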
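Wherever viability, T/C is given: 100% = DMSO vehicle control viability.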

## O=C(c1cc(Cc2n[nH]c(=O)c3ccccc23)ccc1F)N1CCN(C(=O)C2CC2)CC1 + COC1C(OC(N)=O)C(O)C(Oc2ccc3c(O)c(NC(=O)c4ccc(O)c(CC=C(C)C)c4)c(=O)oc3c2C)OC1(C)C
Second compound 0.0316 µM
  pIC50: < 5.00
Second compound 0.1 µM
  pIC50: < 5.00
Second compound 0.316 µM
  pIC50: < 5.00
Second compound 1 µM
  pIC50: < 5.00
Second compound 3.16 µM
  pIC50: < 5.00
Second compound 10 µM
  pIC50: < 5.00
[1]
  viability, T/C: 117%
[2]
  viability, T/C: 105%
Second compound 0.0316 µM, first compound 0.316 µM
  viability, T/C: 106%
Second compound 0.0316 µM, first compound 1 µM
  viability, T/C: 92.3%
Second compound 0.0316 µM, first compound 3.16 µM
  viability, T/C: 123%
Second compound 0.0316 µM, first compound 10 µM
  viability, T/C: 66.7%
[3]
  viability, T/C: 98.7%
[4]
  viability, T/C: 102%
Second compound 0.1 µM, first compound 0.316 µM
  viability, T/C: 95%
Second compound 0.1 µM, first compound 1 µM
  viability, T/C: 97.3%
Second compound 0.1 µM, first compound 3.16 µM
  viability, T/C: 119%
Second compound 0.1 µM, first compound 10 µM
  viability, T/C: 63.2%
[5]
  viability, T/C: 98.5%
[6]
  viability, T/C: 111%
Second compound 0.316 µM, first compound 0.316 µM
  viability, T/C: 109%
Second compound 0.316 µM, first compound 1 µM
  viability, T/C: 94%
Second compound 0.316 µM, first compound 3.16 µM
  viability, T/C: 109%
Second compound 0.316 µM, first compound 10 µM
  viability, T/C: 66.1%
[7]
  viability, T/C: 90.7%
[8]
  viability, T/C: 101%
Second compound 1 µM, first compound 0.316 µM
  viability, T/C: 109%
Second compound 1 µM, first compound 1 µM
  viability, T/C: 102%
Second compound 1 µM, first compound 3.16 µM
  viability, T/C: 107%
Second compound 1 µM, first compound 10 µM
  viability, T/C: 65.9%
[9]
  viability, T/C: 101%
[10]
  viability, T/C: 105%
Second compound 3.16 µM, first compound 0.316 µM
  viability, T/C: 114%
Second compound 3.16 µM, first compound 1 µM
  viability, T/C: 90.1%
Second compound 3.16 µM, first compound 3.16 µM
  viability, T/C: 103%
Second compound 3.16 µM, first compound 10 µM
  viability, T/C: 63.9%
[11]
  viability, T/C: 101%
[12]
  viability, T/C: 91.6%
Second compound 10 µM, first compound 0.316 µM
  viability, T/C: 101%
Second compound 10 µM, first compound 1 µM
  viability, T/C: 115%
Second compound 10 µM, first compound 3.16 µM
  viability, T/C: 126%
Second compound 10 µM, first compound 10 µM
  viability, T/C: 66.2%

## CC(=O)O[C@H]1C(=O)[C@@]2(C)[C@H]([C@H](OC(=O)c3ccccc3)[C@]3(O)C[C@H](OC(=O)[C@H](O)[C@@H](NC(=O)c4ccccc4)c4ccccc4)C(C)=C1C3(C)C)[C@]1(OC(C)=O)CO[C@@H]1C[C@@H]2O + COC1C(OC(N)=O)C(O)C(Oc2ccc3c(O)c(NC(=O)c4ccc(O)c(CC=C(C)C)c4)c(=O)oc3c2C)OC1(C)C
Second compound 0.0316 µM
  pIC50: > 8.02
Second compound 0.1 µM
  pIC50: > 8.02
Second compound 0.316 µM
  pIC50: > 8.02
Second compound 1 µM
  pIC50: > 8.02
Second compound 3.16 µM
  pIC50: > 8.02
Second compound 10 µM
  pIC50: > 8.02
Second compound 0.0316 µM, first compound 0.00949 µM
  viability, T/C: 18.8%
Second compound 0.0316 µM, first compound 0.03 µM
  viability, T/C: 6.51%
Second compound 0.0316 µM, first compound 0.0949 µM
  viability, T/C: 3.77%
Second compound 0.0316 µM, first compound 0.3 µM
  viability, T/C: 2.87%
Second compound 0.0316 µM, first compound 0.949 µM
  viability, T/C: 2.1%
Second compound 0.0316 µM, first compound 3 µM
  viability, T/C: 2.04%
Second compound 0.1 µM, first compound 0.00949 µM
  viability, T/C: 17.1%
Second compound 0.1 µM, first compound 0.03 µM
  viability, T/C: 5.55%
Second compound 0.1 µM, first compound 0.0949 µM
  viability, T/C: 3.16%
Second compound 0.1 µM, first compound 0.3 µM
  viability, T/C: 3.36%
Second compound 0.1 µM, first compound 0.949 µM
  viability, T/C: 2.39%
Second compound 0.1 µM, first compound 3 µM
  viability, T/C: 2.52%
Second compound 0.316 µM, first compound 0.00949 µM
  viability, T/C: 20.7%
Second compound 0.316 µM, first compound 0.03 µM
  viability, T/C: 5.59%
Second compound 0.316 µM, first compound 0.0949 µM
  viability, T/C: 3.78%
Second compound 0.316 µM, first compound 0.3 µM
  viability, T/C: 2.55%
Second compound 0.316 µM, first compound 0.949 µM
  viability, T/C: 2.77%
Second compound 0.316 µM, first compound 3 µM
  viability, T/C: 2.42%
Second compound 1 µM, first compound 0.00949 µM
  viability, T/C: 19%
Second compound 1 µM, first compound 0.03 µM
  viability, T/C: 5.89%
Second compound 1 µM, first compound 0.0949 µM
  viability, T/C: 3.25%
Second compound 1 µM, first compound 0.3 µM
  viability, T/C: 3.12%
Second compound 1 µM, first compound 0.949 µM
  viability, T/C: 2.59%
Second compound 1 µM, first compound 3 µM
  viability, T/C: 2.05%
Second compound 3.16 µM, first compound 0.00949 µM
  viability, T/C: 17%
Second compound 3.16 µM, first compound 0.03 µM
  viability, T/C: 6.12%
Second compound 3.16 µM, first compound 0.0949 µM
  viability, T/C: 3.2%
Second compound 3.16 µM, first compound 0.3 µM
  viability, T/C: 2.83%
Second compound 3.16 µM, first compound 0.949 µM
  viability, T/C: 3.06%
Second compound 3.16 µM, first compound 3 µM
  viability, T/C: 2.28%
Second compound 10 µM, first compound 0.00949 µM
  viability, T/C: 19.6%
Second compound 10 µM, first compound 0.03 µM
  viability, T/C: 5.72%
Second compound 10 µM, first compound 0.0949 µM
  viability, T/C: 3.65%
Second compound 10 µM, first compound 0.3 µM
  viability, T/C: 2.92%
Second compound 10 µM, first compound 0.949 µM
  viability, T/C: 2.88%
Second compound 10 µM, first compound 3 µM
  viability, T/C: 2.55%

## CC[C@@]1(O)C(=O)OCc2c1cc1n(c2=O)Cc2cc3c(CN(C)C)c(O)ccc3nc2-1 + Cc1cccc(N(C)C(=O)C2C(O)CCN2c2nc(C)cc(C(F)(F)F)c2C#N)c1
Second compound 0.0316 µM
  pIC50: 7.03
Second compound 0.1 µM
  pIC50: 7.01
Second compound 0.316 µM
  pIC50: 7.03
Second compound 1 µM
  pIC50: 7.07
Second compound 3.16 µM
  pIC50: 7.07
Second compound 10 µM
  pIC50: 7.21
Second compound 0.0316 µM, first compound 0.000316 µM
  viability, T/C: 112%
Second compound 0.0316 µM, first compound 0.001 µM
  viability, T/C: 83.4%
Second compound 0.0316 µM, first compound 0.00316 µM
  viability, T/C: 90.6%
Second compound 0.0316 µM, first compound 0.01 µM
  viability, T/C: 104%
[1]
  viability, T/C: 67%
[2]
  viability, T/C: 48.9%
Second compound 0.1 µM, first compound 0.000316 µM
  viability, T/C: 102%
Second compound 0.1 µM, first compound 0.001 µM
  viability, T/C: 96.7%
Second compound 0.1 µM, first compound 0.00316 µM
  viability, T/C: 96%
Second compound 0.1 µM, first compound 0.01 µM
  viability, T/C: 103%
[3]
  viability, T/C: 74.8%
[4]
  viability, T/C: 49.6%
Second compound 0.316 µM, first compound 0.000316 µM
  viability, T/C: 83.1%
Second compound 0.316 µM, first compound 0.001 µM
  viability, T/C: 106%
Second compound 0.316 µM, first compound 0.00316 µM
  viability, T/C: 99.4%
Second compound 0.316 µM, first compound 0.01 µM
  viability, T/C: 118%
[5]
  viability, T/C: 71.7%
[6]
  viability, T/C: 48.7%
Second compound 1 µM, first compound 0.000316 µM
  viability, T/C: 105%
Second compound 1 µM, first compound 0.001 µM
  viability, T/C: 96.9%
Second compound 1 µM, first compound 0.00316 µM
  viability, T/C: 96.7%
Second compound 1 µM, first compound 0.01 µM
  viability, T/C: 114%
[7]
  viability, T/C: 74%
[8]
  viability, T/C: 46.4%
Second compound 3.16 µM, first compound 0.000316 µM
  viability, T/C: 102%
Second compound 3.16 µM, first compound 0.001 µM
  viability, T/C: 100%
Second compound 3.16 µM, first compound 0.00316 µM
  viability, T/C: 96.2%
Second compound 3.16 µM, first compound 0.01 µM
  viability, T/C: 115%
[9]
  viability, T/C: 73.9%
[10]
  viability, T/C: 45.9%
Second compound 10 µM, first compound 0.000316 µM
  viability, T/C: 115%
Second compound 10 µM, first compound 0.001 µM
  viability, T/C: 96.2%
Second compound 10 µM, first compound 0.00316 µM
  viability, T/C: 104%
Second compound 10 µM, first compound 0.01 µM
  viability, T/C: 87.5%
[11]
  viability, T/C: 59.8%
[12]
  viability, T/C: 42.6%

— PubChem BioAssay AID1963854 (Molecular Pharmacology Branch, DTP, NCI, 2024)
